Test results taken from patent US9464064B2, “HCV helicase inhibitors and methods of use thereof” (University of Kansas, priority 2011, dated 2016).

Molecular target: T1, HCV NS3 helicase NS3h_1b(con1) (Hepatitis C virus genotype 1b, UniProt Q9WMX2)
T1 construct: truncated C-terminally His-tagged NS3 proteins lacking the N-terminal protease, called NS3h; His-tag (C); made in house
Experiment: MBHA screen of NCI mechanistic set library at 20 μM (percent inhibition, compound interference)
Type: biochemical
Settings: compounds at 20 μM; for Inh. (%) (Inhibition): calculated from Equation 1
Summary of the method: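 Molecular beacon-based DNA unwinding assay; compounds screened at 20 μM in triplicate, with DMSO-only negative and 500 nM dT20 positive controls. Fluorescence (ex 643/em 670 nm) was read before and 30 min after adding ATP to 1 mM. Percent inhibition came from the change relative to DMSO controls; interference from pre-ATP fluorescence versus DMSO controls.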

[1] = MBHA with DNA substrate, assay interference calculated with Equation 2
[2] = assay interference calculated with Equation 2 (fluorescence vs DMSO-only controls before ATP)

T1 sequence (Q9WMX2 1192-1657): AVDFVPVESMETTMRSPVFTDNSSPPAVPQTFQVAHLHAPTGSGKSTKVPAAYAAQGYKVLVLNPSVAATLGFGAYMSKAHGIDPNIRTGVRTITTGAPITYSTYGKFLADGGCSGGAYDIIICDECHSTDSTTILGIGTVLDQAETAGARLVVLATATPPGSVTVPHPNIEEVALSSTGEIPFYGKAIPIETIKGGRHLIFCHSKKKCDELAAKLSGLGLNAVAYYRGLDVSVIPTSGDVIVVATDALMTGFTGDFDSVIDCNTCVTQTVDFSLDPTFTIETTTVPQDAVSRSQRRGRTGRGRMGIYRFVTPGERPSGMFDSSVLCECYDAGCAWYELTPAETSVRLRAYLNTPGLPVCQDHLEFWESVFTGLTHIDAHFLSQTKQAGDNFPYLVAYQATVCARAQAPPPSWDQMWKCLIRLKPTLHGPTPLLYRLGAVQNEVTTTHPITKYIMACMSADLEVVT

## NC(=O)C1=C[C@H]2[C@H]3C=C[C@@]2(O)C(=O)O[C@@H]3O1 [Compound 357683]
[1]
  Int.* (Ratio) (Interference): 0.99 Ratio
MBHA with DNA substrate
  Inh. (%) (Inhibition): 2.7%

## CCN(CC)Cc1cc(N=Nc2c(O)ccc3c(N=Nc4ccc(O)c(CN(CC)CC)c4)c(O)ccc23)ccc1O.Cl [Compound 359463]
MBHA with a DNA substrate
  Inh. (%) (Inhibition): 7.3%
[2]
  Int.* (Ratio) (Interference): 0.45 Ratio

## Cc1ccc2c(c1)C1(C)OC(C=CC1=O)O2 (centres unmarked) [Compound 359892]
[1]
  Int.* (Ratio) (Interference): 0.98 Ratio
MBHA with DNA substrate
  Inh. (%) (Inhibition): −0.7%

## CN1CCN(CN2C(=O)C3C4C=CC(C3C2=O)C2C3C(=O)N(CN5CCN(C)CC5)C(=O)C3C42)CC1 (centres unmarked) [Compound 361813]
[1]
  Int.* (Ratio) (Interference): 1.03 Ratio
MBHA with DNA substrate
  Inh. (%) (Inhibition): 21.8%

## COC(=O)NC1C(C)OC(OC2C/C=C(/C)C3C=CC4C(OC5CC(OC6CC(O)C(OC7CC(O)C(OC)C(C)O7)C(C)O6)C(O)C(C)O5)C(C)CC(C)C4C3(C)/C(O)=C3\C(=O)OC4(CC(C)C(CO)=CC4/C=C\2C)C3=O)CC1(C)[N+](=O)[O-] (centres unmarked) [Compound 363182]
[1]
  Int.* (Ratio) (Interference): 1.08 Ratio
MBHA with DNA substrate
  Inh. (%) (Inhibition): 22.2%

## CC1(C)C2CCC1(CS(=O)(=O)O)C(=O)C2.CN1C(c2ccccc2)CC(=NO)CC1c1ccccc1 (centres unmarked) [Compound 363744]
[1]
  Int.* (Ratio) (Interference): 1.04 Ratio
MBHA with DNA substrate
  Inh. (%) (Inhibition): 17.2%

## Cl.O=C1c2cccc(NCCCNCCO)c2C(=O)c2cccc(NCCCNCCO)c21 [Compound 363998]
[1]
  Int.* (Ratio) (Interference): 0.17 Ratio
MBHA with DNA substrate
  Inh. (%) (Inhibition): 138.7%

## N#CC(=S)Nc1ccc(F)cc1 [Compound 369317]
[1]
  Int.* (Ratio) (Interference): 0.95 Ratio
MBHA with DNA substrate
  Inh. (%) (Inhibition): 2.8%

## Cc1ccc(NC(=S)C#N)c(C)c1 [Compound 369318]
[1]
  Int.* (Ratio) (Interference): 0.95 Ratio
MBHA with DNA substrate
  Inh. (%) (Inhibition): −0.4%

## COc1ccc2c(c1)CCc1c-2n[nH]c1-c1[nH]nc2c1CCc1cc(OC)ccc1-2 [Compound 371846]
[1]
  Int.* (Ratio) (Interference): 0.86 Ratio
MBHA with DNA substrate
  Inh. (%) (Inhibition): 2.1%

## CN1C(Cl)=NS(=O)(=O)c2ccccc21 [Compound 373853]
[1]
  Int.* (Ratio) (Interference): 0.92 Ratio
MBHA with DNA substrate
  Inh. (%) (Inhibition): 5.1%

## Cc1ccc(NC(=O)c2cc3ccccc3c(N=Nc3ccccc3O)c2O)c(C)c1 [Compound 374898]
[1]
  Int.* (Ratio) (Interference): 0.97 Ratio
MBHA with DNA substrate
  Inh. (%) (Inhibition): 3.2%

## CC1(C)CCCC2(C)C3=C(CCC12)C(=O)OC3 (centres unmarked) [Compound 375294]
[1]
  Int.* (Ratio) (Interference): 0.87 Ratio
MBHA with DNA substrate
  Inh. (%) (Inhibition): 13.9%

## Nc1ccn([C@@H]2C=C(CO)[C@@H](O)[C@H]2O)c(=O)n1 [Compound 375575]
[1]
  Int.* (Ratio) (Interference): 0.93 Ratio
MBHA with DNA substrate
  Inh. (%) (Inhibition): 12.9%

## COc1cc2oc3cc(=O)cc4oc(-c5ccccc5)cc(c2c2c1CCC(c1ccccc1)O2)c43 (centres unmarked) [Compound 376248]
MBHA with a DNA substrate
  Inh. (%) (Inhibition): 11.4%
[2]
  Int.* (Ratio) (Interference): 0.80 Ratio

## C/C(=N\NC(=S)N1CCN(C2CCCCCC2)CC1)c1ccccn1 [Compound 376265]
[1]
  Int.* (Ratio) (Interference): 1.02 Ratio
MBHA with DNA substrate
  Inh. (%) (Inhibition): −13.7%

## CC1(C)NC(=O)N(CCCCCCN2C(=O)NC(C)(C)C2=O)C1=O [Compound 376791]
[1]
  Int.* (Ratio) (Interference): 1.08 Ratio
MBHA with DNA substrate
  Inh. (%) (Inhibition): −7.3%

## N#CC(=S)Nc1ccc(Cl)c(Cl)c1 [Compound 379531]
MBHA with a DNA substrate
  Inh. (%) (Inhibition): 11.6%
[2]
  Int.* (Ratio) (Interference): 0.89 Ratio

## C=C(CN(C)C)C(=O)c1ccccc1Cl.Cl [Compound 382007]
[1]
  Int.* (Ratio) (Interference): 0.85 Ratio
MBHA with DNA substrate
  Inh. (%) (Inhibition): 22.9%

## Br.CCN(CC)CC(C)(C)C(=O)/C=C/c1ccc(C)cc1 [Compound 382766]
[1]
  Int.* (Ratio) (Interference): 0.90 Ratio
MBHA with DNA substrate
  Inh. (%) (Inhibition): 19.2%

## C=C1CC[C@@H]2[C@](C)(CO)[C@H](O)CC[C@@]2(C)[C@@H]1C/C=C1/C(=O)OC[C@H]1O [Compound 383468]
MBHA with a DNA substrate
  Inh. (%) (Inhibition): 9.4%
[2]
  Int.* (Ratio) (Interference): 0.98 Ratio

## O=C1C=Cc2ncccc2C1=O [Compound 400944]
MBHA with a DNA substrate
  Inh. (%) (Inhibition): −6.2%
[2]
  Int.* (Ratio) (Interference): 0.84 Ratio

## CC1=C2C(=CC(C)(C)[C@@H]2O)C(=O)[C@](C)(O)C12CC2 [Compound 400978]
[1]
  Int.* (Ratio) (Interference): 1.10 Ratio
MBHA with DNA substrate
  Inh. (%) (Inhibition): 17.9%

## COc1cc([C@H]2c3cc4c(cc3C[C@@H]3COC(=O)[C@H]32)OCO4)cc(OC)c1OC [Compound 403148]
[1]
  Int.* (Ratio) (Interference): 0.94 Ratio
MBHA with DNA substrate
  Inh. (%) (Inhibition): 16.8%

## C[C@@H]1CC[C@H]2C(C)(C)[C@H]3C[C@@]12CC[C@@]3(C)O [Compound 403883]
MBHA with a DNA substrate
  Inh. (%) (Inhibition): −4.0%
[2]
  Int.* (Ratio) (Interference): 0.93 Ratio

## Nc1ncnc2c1ncn2C1OC(CO)C(O)C1O (centres unmarked) [Compound 404241]
[1]
  Int.* (Ratio) (Interference): 1.06 Ratio
MBHA with DNA substrate, 20 µM
  Inh. (%) (Inhibition): −11.9%

## N#CC(=C1C=CC(=NO)C=C1)c1ccc(Cl)cc1 [Compound 405158]
MBHA with a DNA substrate
  Inh. (%) (Inhibition): 10.9%
[2]
  Int.* (Ratio) (Interference): 1.09 Ratio

## OCC1OC(n2cnc3c(=S)nc[nH]c32)C(O)C1O (centres unmarked) [Compound 406021]
[1]
  Int.* (Ratio) (Interference): 1.10 Ratio
MBHA with DNA substrate
  Inh. (%) (Inhibition): 1.7%

## O=c1c(O)c(-c2ccc(O)c(O)c2)oc2cc(O)ccc12 [Compound 407010]
[1]
  Int.* (Ratio) (Interference): 0.90 Ratio
MBHA with DNA substrate
  Inh. (%) (Inhibition): 19.4%

## CC(=O)OC1CC(n2cc(F)c(=O)[nH]c2=O)OC1CO (centres unmarked) [Compound 407335]
[1]
  Int.* (Ratio) (Interference): 0.88 Ratio
MBHA with DNA substrate
  Inh. (%) (Inhibition): 3.5%

## CC12CCC(O)CC1CCC1C2CCC2(C)C(C3=CC(=O)OC3)CCC12O (centres unmarked) [Compound 407806]
[1]
  Int.* (Ratio) (Interference): 1.00 Ratio
MBHA with DNA substrate
  Inh. (%) (Inhibition): −11.1%

## Cc1cc(O)c2c(c1)C(=O)c1cc(O)cc(O)c1C2=O [Compound 408120]
MBHA with a DNA substrate
  Inh. (%) (Inhibition): −29.4%
[2]
  Int.* (Ratio) (Interference): 1.05 Ratio

## CC(C)(O)C=CC(=O)C(C)(O)C1C(O)CC2(C)C3CC=C4C(C=C(O)C(=O)C4(C)C)C3(C)C(=O)CC12C (centres unmarked) [Compound 521777]
[1]
  Int.* (Ratio) (Interference): 0.90 Ratio
MBHA with DNA substrate
  Inh. (%) (Inhibition): 5.8%

## CSC1SC[C@H]2C(=O)N(C)[C@@H](C(C)C)C(=O)OC[C@@H](NC(=O)c3cnc4ccccc4n3)C(=O)N[C@@H](C)C(=O)N(C)[C@@H]1C(=O)N(C)[C@@H](C(C)C)C(=O)OC[C@@H](NC(=O)c1cnc3ccccc3n1)C(=O)N[C@@H](C)C(=O)N2C (some centres unmarked) [Compound 526417]
[1]
  Int.* (Ratio) (Interference): 0.86 Ratio
MBHA with DNA substrate
  Inh. (%) (Inhibition): 55.2%

## N[C@@H](CN(O)N=O)C(=O)O [Compound 529469]
[1]
  Int.* (Ratio) (Interference): 0.89 Ratio
MBHA with DNA substrate
  Inh. (%) (Inhibition): 18.9%

## CC(C)c1ccc2nc3ccc(C(=O)NCCN(C)C)cn3c(=O)c2c1 [Compound 600305]
[1]
  Int.* (Ratio) (Interference): 0.91 Ratio
MBHA with DNA substrate
  Inh. (%) (Inhibition): 26.6%

## CCCCCn1cc2c3c(cccc31)C1C=C(C)CN(C)[C@@H]1C2.Cc1ccc(C(=O)OC(C(=O)O)C(OC(=O)c2ccc(C)cc2)C(=O)O)cc1 (centres unmarked) [Compound 600681]
[1]
  Int.* (Ratio) (Interference): 0.95 Ratio
MBHA with DNA substrate
  Inh. (%) (Inhibition): −19.1%

## CCN(CC)CCOc1ccccc1/C=C/c1noc2ccccc12.Cl [Compound 601101]
[1]
  Int.* (Ratio) (Interference): 0.97 Ratio
MBHA with DNA substrate
  Inh. (%) (Inhibition): −7.8%

## Cc1nc2c(nc1C)C(=O)c1ccccc1C2=O [Compound 602617]
[1]
  Int.* (Ratio) (Interference): 0.97 Ratio
MBHA with DNA substrate
  Inh. (%) (Inhibition): 3.9%

## CN(C)c1cccc(F)c1C(=O)NC(=O)Nc1ccc(Cl)cc1 [Compound 603108]
[1]
  Int.* (Ratio) (Interference): 1.03 Ratio
MBHA with DNA substrate
  Inh. (%) (Inhibition): −8.6%

## C[n+]1c(-c2ccc(/C=C/C=N/NC(=O)c3ccc(C(=O)N/N=C/C=C/c4ccc(-c5cn6ccccc6[n+]5C)cc4)cc3)cc2)cn2ccccc21.Cc1ccc(S(=O)(=O)O)cc1 [Compound 603169]
[1]
  Int.* (Ratio) (Interference): 0.22 Ratio
MBHA with DNA substrate
  Inh. (%) (Inhibition): 26.2%

## C[Si](C)(CN)CN.[Cl][Pt][Cl] [Compound 603577]
[1]
  Int.* (Ratio) (Interference): 0.93 Ratio
MBHA with DNA substrate
  Inh. (%) (Inhibition): 13.5%

## Cc1ccc(S(=O)(=O)NC(=O)NC2=NC(C)(C)N(c3ccc(Cl)c(Cl)c3)C(N)=N2)cc1 [Compound 603624]
MBHA with a DNA substrate
  Inh. (%) (Inhibition): 7.5%
[2]
  Int.* (Ratio) (Interference): 0.92 Ratio

## O=c1[nH]c2ccc(O)cc2o1 [Compound 603719]
MBHA with a DNA substrate
  Inh. (%) (Inhibition): −5.7%
[2]
  Int.* (Ratio) (Interference): 1.20 Ratio

## C[C@H](CSC(=O)c1ccccc1)C(=O)N1c2ccccc2C[C@H]1C(=O)O [Compound 604535]
[1]
  Int.* (Ratio) (Interference): 1.08 Ratio
MBHA with DNA substrate
  Inh. (%) (Inhibition): 1.0%

## CCCCCCCCCCCCCCCCOP(=O)([O-])OCC[N+](C)(C)C [Compound 605583]
[1]
  Int.* (Ratio) (Interference): 0.89 Ratio
MBHA with DNA substrate
  Inh. (%) (Inhibition): −10.9%
